Experimental findings from patent US20230416258A1, “BENZ[…], AND PREPARATION METHOD THEREFOR AND USE THEREOF” (CHINA PHARMACEUTICAL UNIVERSITY, priority 2020, published 2023) are described below.

For series [1], the system named is SD rats. Kind of series: Test for drug-induced disappearance of righting reflex in rats. It is filed as in vivo. As to conditions: single rapid bolus via tail vein. From the text:
In anesthetic drug experiments, latency generally refers to the time from the start of administration to the loss of consciousness of the subject. The shorter latency is preferred, indicating a rapid onset of action after administration. The duration of anesthesia generally refers to the duration of time from the loss of consciousness to the restoration of consciousness of the subject. The duration of the drug will vary from animal model to animal species. Too long anesthesia may produce adverse cardiovascular and respiratory responses, such as adverse neurological effects to the subject, including sleepiness and dizziness; meanwhile, too short duration of anesthesia may affect the anesthesia effect, causing problems such as increase of anesthesia dosage during the operation.
SD rats (male, 200-280 g) were randomly grouped and subjected to a single administration by rapid bolus via the tail vein. The latency and duration of righting reflex in the rats were recorded.

A further series deals with KM mice. Kind of series: Test for drug-induced disappearance of righting reflex in mice. It is filed as in vivo. As to conditions: single rapid bolus via tail vein. An outline of the steps: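 Female KM mice (18–25 g), randomly grouped, given a single rapid bolus via tail vein. Latency (administration to loss of righting reflex) and duration (loss to recovery) recorded.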

Series [2] relates to SD rats. Kind of series: Induction of anesthesia in rats by continuous infusion of drug for 20 min. Particulars: initial dose 20 mg/kg bolus, maintenance dose 0.2 (mg/kg)/min for 20 min, after infusion completed. It is filed as in vivo. On the procedure: SD rats (male, 200-280 g) were randomly grouped and subjected to administration of an initial dose by rapid bolus via the tail vein, followed by a continuous infusion with a maintenance dose for 20 min.
After the infusion was completed, the duration of the righting reflex and the time from wake-up to recovery in rats were recorded.

Another series concerns hCMEC/D3 cells. Kind of series: Rate of drug passing through in vitro blood-brain barrier (Transwell). It is filed as in vitro ADME. As to conditions: hCMEC/D3 monolayer, compound 0.1 mg/mL. The protocol:
A Transwell device (pore size: 5.0 μm) was placed in a 24-well cell culture well; then hCMEC/D3 cells at 1×10^5 cells/mL were transferred to the upper microwells of Transwell at 150 μL/well, and cell culture medium was added to the lower microwells. After the bottom was covered by a single layer of the cells, the medium in the wells was replaced with EBM-2 complete medium containing 1% FBS, and the cells were cultured in a CO2 incubator for 10 days until a fully dense single layer of the cells was formed. When a fully dense single layer of the cells was formed, the compound at 0.1 mg/mL was added to the lower medium, and after 5 min, the concentration of the compound in the upper medium was measured to calculate the permeability:
Pcompound%=Cupper compound/Clower compound×100%

Series [3] has as its system GABA-activated Cl− current (GABAA receptor) in HEK 293T cells. Description: Effect of drugs on GABA-activated current in cells by cell patch clamp. It is filed as cell-based. As to conditions: for Enhancement percentage Emax for 2 μM GABA current (within 3-30 μM): corresponding concentration 20 μM. On the procedure:
Test compounds were dissolved at various concentrations in an extracellular buffer (140 mM NaCl, 4.7 mM KCl, 10 mM HEPES, 2 mM CaCl2), 10 mM glucose, 1 mM MgCl2, pH 7.4). HEK 293T cells were seeded on glass coverslips and cultured in DMEM media at 37° C. with 5% CO2 for 24 h. GABA Cl^− current was subjected to whole cell recording using an HEKA EPC 10USB patch clamp amplifier. 2 μM GABA was used for exciting Cl^− current, with the membrane potential clamped at −60 mV. The cells were treated with the test compound and 2 μM GABA simultaneously, and the induction effect on and Emax of Cl^− current in the same cell were recorded.
Maximum enhancement percentage Emax for 2 μM GABA current and corresponding concentration (μM): 100% for normal humans. The greater the percentage, the lower the corresponding concentration, and the greater the depth of anesthesia.

Setting [4] is: read-out: Positive enhancement EC50 (μM) for 2 μM GABA-induced current, −60 mV.

SMILES strings stand for the structures. Read-outs that look alike come from different tables or passages of the source.

On to `CCCSc1nnc2n1-c1ccc(Cl)cc1C(c1ccccc1Cl)=N[C@H]2CCC(=O)OC` [Compound 29, methyl (S)-3-(8-chloro-6-(2-chlorophenyl)-1-(propylthio)-4H-benzo[f][1,2,4]triazolo[4,3-a][1,4]diazepin-4-yl)propionate], for which, in the series with SD rats [1], the Latency was 0.86 min. Moreover, in the series on KM mice (30 mg/kg), the Duration was determined as 9.25 min and the Latency came to 0.57 min. In addition, in the series with SD rats [2], the Duration of anesthesia turned out to be 9.18 min and the “Time from wake-up to recovery” value was 13.6 min. In addition, the “In vitro blood-brain barrier, compound permeability at 5 min” value (from here on “In vitro blood-brain barrier”) in the series with hCMEC/D3 cells is listed as 77.6%. Besides, the EC50 in series [3] (setting [4]) is 0.74 µM. In addition, the “Enhancement percentage Emax for 2 μM GABA current (within 3-30 μM)” value (shortened to “Enhancement percentage Emax”) in series [3] (−60 mV) is recorded as 251% (20 μM).

In the series with SD rats [1], `CCSc1nnc2n1-c1ccc([N+](=O)[O-])cc1C(c1ccccc1F)=N[C@H]2CCC(=O)OC` [Compound 13, methyl (S)-3-(8-nitro-6-(2-fluorophenyl)-1-(ethylthio)-4H-benzo[f][1,2,4]triazolo[4,3-a][1,4]diazepin-4-yl)propionate] returned a Latency of 0.58 min. Also, in the series on KM mice (30 mg/kg), the Duration was determined as 2.87 min and the Latency was found to be 0.23 min. In the series with SD rats [2], the Duration of anesthesia was 5.22 min and the “Time from wake-up to recovery” value amounted to 11.4 min. The “In vitro blood-brain barrier” value in the series on hCMEC/D3 cells worked out at 81.6%. Further, the EC50 in series [3] (setting [4]) stood at 0.58 µM. Moreover, in series [3] (−60 mV), the “Enhancement percentage Emax” value is 246% (20 μM).

In the series with SD rats [1], `COC(=O)CC[C@@H]1N=C(c2ccccc2F)c2cc(Cl)ccc2-n2c(SCCN3CCOCC3)nnc21` [Compound 51, methyl (S)-3-(8-chloro-6-(2-fluorophenyl)-1-((2-morpholinoethyl)thio)-4H-benzo[f][1,2,4]triazolo[4,3-a][1,4]diazepin-4-yl)propionate] registered a Latency of 0.27 min. In the series on KM mice (60 mg/kg), this molecule registered a Duration of 8.46 min and a Latency of 0.25 min. In the series with KM mice (100 mg/kg), this molecule returned a Duration of 14.6 min and a Latency of 0.16 min. In the series on SD rats [2], the Duration of anesthesia is given as 8.36 min and the “Time from wake-up to recovery” value was 22.6 min. The “In vitro blood-brain barrier” value with hCMEC/D3 cells was 78.6%. The EC50 in series [3] (setting [4]) stood at 0.41 µM. The “Enhancement percentage Emax” value in series [3] (−60 mV) is 304% (20 μM).

Take `COC(=O)CC[C@@H]1N=C(c2ccccc2Cl)c2cc(Cl)ccc2-n2c(SC)nnc21` [Compound 23, methyl (S)-3-(8-chloro-6-(2-chlorophenyl)-1-(methylthio)-4H-benzo[f][1,2,4]triazolo[4,3-a][1,4]diazepin-4-yl)propionate]: in the series with SD rats [1], the Latency amounted to 0.36 min. In the series with KM mice (60 mg/kg), this molecule registered a Duration of 8.46 min and a Latency of 0.25 min. In the series with KM mice (100 mg/kg), this molecule returned a Duration of 14.6 min and a Latency of 0.16 min. Further, in the series on SD rats [2], the Duration of anesthesia is listed as 7.22 min and the “Time from wake-up to recovery” value turned out to be 13.2 min. Moreover, the “In vitro blood-brain barrier” value in the series on hCMEC/D3 cells is on record as 65.3%. Moreover, the EC50 in series [3] (setting [4]) stood at 0.52 µM. Moreover, in series [3] (−60 mV), the “Enhancement percentage Emax” value was 278% (20 μM).

In the series with SD rats [1], `COC(=O)CC[C@@H]1N=C(c2ccccc2Cl)c2cc(Cl)ccc2-n2c(SCCN3CCCC3)nnc21` [Compound 119, methyl (S)-3-(8-chloro-6-(2-chlorophenyl)-1-(2-((pyrrolidin-1-yl)ethyl)thio)-4H-benzo[f][1,2,4]triazolo[4,3-a][1,4]diazepin-4-yl)propionate] had a Duration of 13.27 min and a Latency of 0.43 min. In the series with KM mice (30 mg/kg), this molecule showed a Duration of 30.86 min and a Latency of 0.46 min. Further, in the series with SD rats [2], the Duration of anesthesia amounted to 12.83 min and the “Time from wake-up to recovery” value is recorded as 32.7 min. In addition, the “In vitro blood-brain barrier” value in the series on hCMEC/D3 cells came out at 83.3%. For the same molecule, in series [3] (2 μM GABA, −60 mV, read-out: Positive enhancement EC50 (μM) for 2 μM GABA-induced current), the EC50 came out at 0.43 µM. For the same molecule, in series [3] (−60 mV), the “Enhancement percentage Emax” value is listed as 278% (20 μM).

As to `COC(=O)CC[C@@H]1N=C(c2ccccc2F)c2cc(Br)ccc2-n2c(SCCCN(C)C)nnc21` [Compound 58, methyl (S)-3-(8-bromo-1-((3-(dimethylamino)propyl)thio)-6-(2-fluorophenyl)-4H-benzo[f][1,2,4]triazolo[4,3-a][1,4]diazepin-4-yl)propionate], in the series with KM mice (30 mg/kg), the Duration turned out to be 7.76 min and the Latency was 0.25 min. Besides, in the series on KM mice (60 mg/kg), the Duration turned out to be 11.17 min and the Latency came out at 0.33 min.

Regarding `COC(=O)CC[C@@H]1N=C(c2ccccc2)c2cc([N+](=O)[O-])ccc2-n2c(SCCN3CCOCC3)nnc21` [Compound 107, methyl (S)-3-(8-nitro-1-((2-morpholinoethyl)thio)-6-phenyl-4H-benzo[f][1,2,4]triazolo[4,3-a][1,4]diazepin-4-yl)propionate], in the series on KM mice (30 mg/kg), the Duration is on record as 13.64 min and the Latency is recorded as 0.45 min.

`COC(=O)CC[C@@H]1N=C(c2ccccc2F)c2cc(Br)ccc2-n2c(SCCN3CCC(F)(F)CC3)nnc21` [Compound 128]: in the series with KM mice (30 mg/kg), the Duration amounted to 7.98 min and the Latency amounted to 0.42 min.

`COC(=O)CC[C@@H]1N=C(c2ccccc2Cl)c2cc(Br)ccc2-n2c(SCCN3CCCC3)nnc21` [Compound 121, methyl (S)-3-(8-bromo-6-(2-chlorophenyl)-1-((2-(pyrrolidin-1-yl)ethyl)thio)-4H-benzo[f][1,2,4]triazolo[4,3-a][1,4]diazepin-4-yl)propionate]: in the series with KM mice (60 mg/kg), the Duration amounted to 16.67 min and the Latency is recorded as 0.18 min.

On to `COC(=O)CC[C@@H]1N=C(c2ccccc2Cl)c2cc(Br)ccc2-n2c(SCCN3CCN(C)CC3)nnc21` [Compound 91, methyl (S)-3-(8-bromo-6-(2-chlorophenyl)-1-((2-(4-methylpiperazin-1-yl)ethyl)thio)-4H-benzo[f][1,2,4]triazolo[4,3-a][1,4]diazepin-4-yl)propionate], for which, in the series with KM mice (30 mg/kg), the Duration is recorded as 17.33 min and the Latency is 1.80 min.

For the molecule `COC(=O)CC[C@@H]1N=C(c2ccccc2Cl)c2cc([N+](=O)[O-])ccc2-n2c(SCC3CC3)nnc21` [Compound 77, methyl (S)-3-(8-nitro-6-(2-chlorophenyl)-1-((cyclopropylmethyl)thio)-4H-benzo[f][1,2,4]triazolo[4,3-a][1,4]diazepin-4-yl)propionate], in the series with KM mice (30 mg/kg), the Duration is 5.69 min and the Latency came to 0.38 min.

As for `COC(=O)CC[C@@H]1N=C(c2ccccc2Cl)c2cc(Cl)ccc2-n2c(SCCCN3CCN(CCO)CC3)nnc21` [Compound 96, methyl (S)-3-(8-chloro-6-(2-chlorophenyl)-1-((3-(4-(2-hydroxyethyl)piperazin-1-yl)propyl)thio)-4H-benzo[f][1,2,4]triazolo[4,3-a][1,4]diazepin-4-yl)propionate], in the series on KM mice (30 mg/kg), the Duration is 7.98 min and the Latency is reported as 0.49 min.

In the series on KM mice (30 mg/kg), `COC(=O)CC[C@@H]1N=C(c2ccccc2F)c2cc(Cl)ccc2-n2c(SCCN3CCN(C)CC3)nnc21` [Compound 60, methyl (S)-3-(8-chloro-6-(2-fluorophenyl)-1-((2-(4-methylpiperazin-1-yl)ethyl)thio)-4H-benzo[f][1,2,4]triazolo[4,3-a][1,4]diazepin-4-yl)propionate] had a Duration of 12.27 min and a Latency of 0.49 min.

The term EC50 denotes the concentration at which the effect is half-maximal.
